According to publication PMC6332220, “Synthesis, Characterization and Biological Evaluation of Some Quinoxaline Derivatives: A Promising and Potent New Class of Antitumor and Antimicrobial Agents” (Molecules, 2015):
Values after ≈ are worked out from the molar mass of the structure shown.

How the values were obtained:
[1] = tested on: Bacillus subtilis; test: Disk diffusion, Bacillus subtilis; assay type: cell-based; details: Gram positive, 8.0 mm disks, 10 μL
Experimental: (§1) The disk diffusion method was used for determination of the antimicrobial activity using ampicillin, gentamicin and amphotericin B as reference drugs. The results were recorded for each compounds as the average diameter as inhibition zones (IZ) of bacterial or fungal growth around the discs in mm as shown in Table 2.
(§2) Antimicrobial activities were carried out against highly pathogenic strains; three strains of Gram positive bacteria (Bacillus subtilis, Staphylococcus aureus and Streptococcus faecalis), four strains of Gram negative bacteria (Escherichia coli, Neisseria gonorrhoeae, Pseudomonas aeruginosa and Salmonella typhimurium) and three fungi strains (Aspergillus flavus, Aspergillus fumigatus and Candida albicans) isolated from primary agar plates. Antimicrobial activity of the tested samples was determined using a modified Kriby-Bauer disk diffusion method. Briefly, 100 µL of the test bacteria/fungi were grown in 10 mL of fresh media until they reached a count approximately 10^8 cells/mL for bacteria or 10^5 cells/mL for fungi. 100 µL of microbial suspension was spread onto agar plates corresponding to the broth in which they were maintained. The inoculated plates of bacterial strains were incubated at 35–37 °C for 24–48 h, while the inoculated plates of fungal strains such as A. flavus and A. fumigatus were incubated at 25 °C for 48 h and yeast as C. albicans was incubated at 30 °C for 24–48 h.
(§3) The agar disk diffusion (qualitative) method was used in this investigation for determination of the preliminary antibacterial and antifungal activities. The agar used was Mueller-Hinton agar plates that are rigorously tested for composition and pH. Further the depth of the agar in the plate is a factor to be considered in the disk diffusion method.
(§4) Reference drugs: ampicillin was used as a standard antibacterial drug for Gram positive bacteria, gentamicin as a standard antibacterial drug for Gram negative bacteria and amphotericin B as antifungal standard drug.
(§5) Bacterial and fungal strains were spread onto the surface of the agar plates using sterile cotton swabs. For evaluation of antibacterial activities, blank paper disks (Schleicher & Schuell, Alicante, Spain) with a diameter of 8.0 mm were saturated with 10 μL of tested concentration of the stock solutions. Disks were dried and then placed onto inoculated agar plates. The plates of bacterial strains were reincubated at 35–37 °C for 24–48 h, while the plates of fungal strains such as A. flavus and A. fumigatus were reincubated at 25 °C for 48 h and yeast as C. albicans was reincubated at 30 °C for 24–48 h as mentioned above. […] For an accurate analysis, tests were run in triplicate for each strain to avoid any error as described in Table 2.

[2] = tested on: Bacillus subtilis; test: MIC by broth dilution, Bacillus subtilis; assay type: cell-based; details: Bacillus subtilis, Gram positive, 0.98-125 µg/mL, read-out: Minimum Inhibitory Concentration (MIC) (µg/mL) Bacillus subtilis
Experimental: In this study, MIC (quantitative method) was used for evaluation of the antimicrobial activity of tested compounds. Screening was evaluated in vitro using the Broth dilution method according to CLSI [45]. All the bacteria were incubated and activated at 30 °C for 24 h inoculation into nutrient broth and the fungi were incubated in malt extract broth for 48 h. The compounds were dissolved in DMSO and then diluted using […] Mueller-Hinton broth. […] In each case triplicate tests were performed and the average was taken as the final reading. The tubes were then inoculated with the test organisms, grown in their suitable broth at 37 °C for 24 h for tested microorganisms (1 × 10^8 CFU/mL for bacteria and 1 × 10^6 CFU/mL of fungi), each 5 mL received 0.1 mL of the above inoculum and incubated at 37 °C for 24 h.

[3] = tested on: MCF-7 (breast adenocarcinoma); test: In vitro cytotoxicity, SRB cell growth assay, MCF-7; details: Homo sapiens, MCF7, 48 h, read-out: IC50 (μg/mL) MCF-7
Experimental: (§6) The in vitro cytotoxic activity of the newly synthesized compounds against human breast cell line (MCF7), non-small cell lung cancer NCIH460, CNS cancer SF-268 and WI 38 (normal fibroblast cells) were evaluated using doxorubicin as the reference drug according to the method reported by Skehan et al..
(§7) The newly synthesized compounds were evaluated in vitro against three human cancer cell lines; which are MCF-7 (breast adenocarcinoma), NCI-H460 (non-small cell lung cancer) and SF-268 (CNS cancer), and WI 38 (normal fibroblast cells) were used in this study. MCF-7 was obtained from the European Collection of Cell Cultures (ECACC, Salisbury, UK) but NCI-H460, SF-268 and WI 38 were kindly provided by the National Cancer Institute (NCI, Cairo, Egypt). They grow as monolayer and routinely maintained RPMI-1640 medium supplemented with 5% heat inactivated fetal bovine serum (FBS), 2 mM glutamine and antibiotics (penicillin 100 U/mL, streptomycin 100 µg/mL), at 37 °C in a humidified atmosphere containing 5% CO2. Exponentially growing cells were obtained by plating 1.5 × 10^5 cells/mL for MCF-7 and SF-268, and 0.75 × 10^4 cells/mL for NCI-H460 followed by 24 h of incubation. The effect of the vehicle solvent (DMSO) on the growth of these cell lines was evaluated in all experiments by exposing untreated control cells to the maximum concentration (0.5%) of DMSO used in each assay.
(§8) The effect of compounds on the in vitro growth of human tumor cell lines were evaluated according to the procedure adopted by the National Cancer Institute ([…]) in the “In vitro Anticancer Drug Discovery Screen” that uses the protein-binding dye sulforhodamine B (SRB) to assess cell growth. In the assay protocol, all cells were incubated at 37 °C under humidified atmosphere containing 5% CO2. Briefly, exponentially cells growing in 96-well plates were then exposed for 48 h to five serial concentrations of each compound, starting from a maximum concentration of 150 μg/mL. Following this exposure period adherent cells were fixed, washed and stained. The bound stain was solubilized and the absorbance was measured at 492 nm in a plate reader (Bio-Tek Instruments Inc., Power wave XS, Winston, NC, USA). For each test compound and cell line, a dose response curve was obtained and the inhibitory concentration of 50% (IC50), corresponding to the concentration of the compounds that inhibited 50% of the net cell growth was calculated as described elsewhere. Doxorubicin was used as a positive control and tested in the same manner.

[4] = tested on: Neisseria gonorrhoeae; test: Disk diffusion, Neisseria gonorrhoeae; assay type: cell-based; details: Gram negative, 8.0 mm disks, 10 μL
Experimental: as §1, §2, §3, §4, §5

[5] = tested on: Pseudomonas aeruginosa; test: Disk diffusion, Pseudomonas aeruginosa; assay type: cell-based; details: Gram negative, 8.0 mm disks, 10 μL
Experimental: as §1, §2, §3, §4, §5

[6] = tested on: Salmonella typhimurium; test: Disk diffusion, Salmonella typhimurium; assay type: cell-based; details: Gram negative, 8.0 mm disks, 10 μL
Experimental: as §1, §2, §3, §4, §5

[7] = tested on: SF-268 (CNS cancer); test: In vitro cytotoxicity, SRB cell growth assay, SF-268; details: Homo sapiens, SF-268, 48 h, read-out: IC50 (μg/mL) SF-268
Experimental: as §6, §7, §8

[8] = tested on: Staphylococcus aureus; test: Disk diffusion, Staphylococcus aureus; assay type: cell-based; details: Gram positive, 8.0 mm disks, 10 μL
Experimental: as §1, §2, §3, §4, §5

[9] = tested on: Candida albicans; test: Disk diffusion, Candida albicans; assay type: cell-based; details: Fungi, 8.0 mm disks, 10 μL
Experimental: as §1, §2, §3, §4, §5
Disk diffusion method for filamentous fungi testing by using approved standard method (M02-A11) developed by the CLSI for evaluating the susceptibilities of filamentous fungi to antifungal agents. Disk diffusion method for yeasts developed by using approved standard method (M44-A2) by the CLSI [44]. Agar-based methods such as disk diffusion can be good alternatives because they are simpler and faster than broth-based methods.

NNc1nc2cc(Br)ccc2nc1Cl [Compound 3, 6-Bromo-2-chloro-3-hydrazinylquinoxaline]
melting point: 201 to 203 °C
Inhibition Zone Diameter (IZ) (mm) Bacillus subtilis [1]: 15 mm
MIC [2]: 1.95 µg/mL (≈ 7.13 µM)
IC50 [3]: 36 ± 7.33 µg/mL (≈ 132 µM)
Inhibition Zone Diameter (IZ) (mm) Neisseria gonorrhoeae [4]: 14 mm
Inhibition Zone Diameter (IZ) (mm) Pseudomonas aeruginosa [5]: 14 mm
Inhibition Zone Diameter (IZ) (mm) Salmonella typhimurium [6]: 13 mm
IC50 [7]: 30.6 ± 2.39 µg/mL (≈ 112 µM)
Inhibition Zone Diameter (IZ) (mm) Staphylococcus aureus [8]: 14 mm
Inhibition Zone Diameter (IZ) (mm) Candida albicans [9]: R (R (IZ = 0 mm))

Brc1ccc2c(c1)n1nnnc1c1nnnn21 [Compound 11, 9-Bromoditetrazolo[1,5-a:5′,1′-c]quinoxaline]
Inhibition Zone Diameter (IZ) (mm) Bacillus subtilis [1]: 19 mm
MIC [2]: 0.98 µg/mL (≈ 3.37 µM)
IC50 [3]: 1.18 ± 1.03 µg/mL (≈ 4.05 µM)
Inhibition Zone Diameter (IZ) (mm) Neisseria gonorrhoeae [4]: R (R (IZ = 0 mm))
Inhibition Zone Diameter (IZ) (mm) Pseudomonas aeruginosa [5]: 14 mm
Inhibition Zone Diameter (IZ) (mm) Salmonella typhimurium [6]: 18 mm
IC50 [7]: 2.86 ± 4.92 µg/mL (≈ 9.83 µM)
Inhibition Zone Diameter (IZ) (mm) Staphylococcus aureus [8]: 17 mm
Inhibition Zone Diameter (IZ) (mm) Candida albicans [9]: R (R (IZ = 0 mm))

Brc1ccc2nc(N3CCOCC3)c3nnnn3c2c1 [Compound 5b, 8-Bromo-4-(morpholin-4-yl)tetrazolo[1,5-a]quinoxaline]
melting point: 144 to 146 °C
Inhibition Zone Diameter (IZ) (mm) Bacillus subtilis [1]: 17 mm
MIC [2]: 1.95 µg/mL (≈ 5.82 µM)
IC50 [3]: 0.02 ± 0.002 µg/mL (≈ 0.0597 µM)
Inhibition Zone Diameter (IZ) (mm) Neisseria gonorrhoeae [4]: R (R (IZ = 0 mm))
Inhibition Zone Diameter (IZ) (mm) Pseudomonas aeruginosa [5]: 10 mm
Inhibition Zone Diameter (IZ) (mm) Salmonella typhimurium [6]: 13 mm
IC50 [7]: 0.06 ± 0.008 µg/mL (≈ 0.179 µM)
Inhibition Zone Diameter (IZ) (mm) Staphylococcus aureus [8]: 17 mm
Inhibition Zone Diameter (IZ) (mm) Candida albicans [9]: 9 mm

Cc1cc(C)n(-c2nc3cc(Br)ccc3nc2NN)n1 [Compound 14, 6-Bromo-3-(3,5-dimethyl-1H-pyrazol-1-yl)-2-hydrazinyl quinoxaline]
melting point: 164 to 166 °C
Inhibition Zone Diameter (IZ) (mm) Bacillus subtilis [1]: 12 mm
MIC [2]: 1.95 µg/mL (≈ 5.85 µM)
IC50 [3]: 30.3 ± 3.86 µg/mL (≈ 91 µM)
Inhibition Zone Diameter (IZ) (mm) Neisseria gonorrhoeae [4]: 12 mm
Inhibition Zone Diameter (IZ) (mm) Pseudomonas aeruginosa [5]: 12 mm
Inhibition Zone Diameter (IZ) (mm) Salmonella typhimurium [6]: 10 mm
IC50 [7]: 42.1 ± 5.58 µg/mL (≈ 126 µM)
Inhibition Zone Diameter (IZ) (mm) Staphylococcus aureus [8]: 12 mm
Inhibition Zone Diameter (IZ) (mm) Candida albicans [9]: R (R (IZ = 0 mm))

NC1=NN(c2nc3ccc(Br)cc3nc2N2N=C(N)CC2=O)C(=O)C1 [Compound 16, 6-Bromo-2,3-bis(3-amino-1H-pyrazol-5(4H)-one)quinoxaline]
melting point: 232 to 233 °C
Inhibition Zone Diameter (IZ) (mm) Bacillus subtilis [1]: 10 mm
MIC [2]: 1.95 µg/mL (≈ 4.84 µM)
IC50 [3]: 12.8 ± 1.46 µg/mL (≈ 31.8 µM)
Inhibition Zone Diameter (IZ) (mm) Neisseria gonorrhoeae [4]: 11 mm
Inhibition Zone Diameter (IZ) (mm) Pseudomonas aeruginosa [5]: 11 mm
Inhibition Zone Diameter (IZ) (mm) Salmonella typhimurium [6]: 10 mm
IC50 [7]: 49.9 ± 8.64 µg/mL (≈ 124 µM)
Inhibition Zone Diameter (IZ) (mm) Staphylococcus aureus [8]: 12 mm
Inhibition Zone Diameter (IZ) (mm) Candida albicans [9]: R (R (IZ = 0 mm))

Clc1nc2ccc(Br)cc2n2nnnc12 [Compound 4, 8-Bromo-4-chlorotetrazolo[1,5-a]quinoxaline]
melting point: 199 to 201 °C
Inhibition Zone Diameter (IZ) (mm) Bacillus subtilis [1]: 20 mm
MIC [2]: 0.98 µg/mL (≈ 3.44 µM)
IC50 [3]: 0.02 ± 0.006 µg/mL (≈ 0.0703 µM)
Inhibition Zone Diameter (IZ) (mm) Neisseria gonorrhoeae [4]: 21 mm
Inhibition Zone Diameter (IZ) (mm) Pseudomonas aeruginosa [5]: 21 mm
Inhibition Zone Diameter (IZ) (mm) Salmonella typhimurium [6]: 17 mm
IC50 [7]: 0.06 ± 0.003 µg/mL (≈ 0.211 µM)
Inhibition Zone Diameter (IZ) (mm) Staphylococcus aureus [8]: 26 mm
Inhibition Zone Diameter (IZ) (mm) Candida albicans [9]: 20 mm

NNc1nc2ccc(Br)cc2nc1NN [Compound 9, 6-Bromo-2,3-dihydrazinylquinoxaline]
Inhibition Zone Diameter (IZ) (mm) Bacillus subtilis [1]: 28 mm
MIC [2]: 0.98 µg/mL (≈ 3.64 µM)
IC50 [3]: 37.1 ± 7.34 µg/mL (≈ 138 µM)
Inhibition Zone Diameter (IZ) (mm) Neisseria gonorrhoeae [4]: 28 mm
Inhibition Zone Diameter (IZ) (mm) Pseudomonas aeruginosa [5]: 31 mm
Inhibition Zone Diameter (IZ) (mm) Salmonella typhimurium [6]: 17 mm
IC50 [7]: 38.9 ± 2.63 µg/mL (≈ 145 µM)
Inhibition Zone Diameter (IZ) (mm) Staphylococcus aureus [8]: 27 mm
Inhibition Zone Diameter (IZ) (mm) Candida albicans [9]: 11 mm

Brc1ccc2nc(N3CCCCC3)c3nnnn3c2c1 [Compound 5a, 8-Bromo-4-(piperidin-1-yl)tetrazolo[1,5-a]quinoxaline]
melting point: 122 to 123 °C
Inhibition Zone Diameter (IZ) (mm) Bacillus subtilis [1]: 13 mm
MIC [2]: 31.2 µg/mL (≈ 93.8 µM)
IC50 [3]: 0.01 ± 0.001 µg/mL (≈ 0.03 µM)
Inhibition Zone Diameter (IZ) (mm) Neisseria gonorrhoeae [4]: R (R (IZ = 0 mm))
Inhibition Zone Diameter (IZ) (mm) Pseudomonas aeruginosa [5]: 11 mm
Inhibition Zone Diameter (IZ) (mm) Salmonella typhimurium [6]: 14 mm
IC50 [7]: 0.02 ± 0.008 µg/mL (≈ 0.06 µM)
Inhibition Zone Diameter (IZ) (mm) Staphylococcus aureus [8]: 11 mm
Inhibition Zone Diameter (IZ) (mm) Candida albicans [9]: 12 mm
